Laboratory results from PMC12552119, “Tailored structured peptide design with a key-cutting machine approach” (Nature Machine Intelligence, 2025).
Where no end group is shown, it is not given here.

Key:
[1] = tested on: E. faecium ATCC 700221 - VRE; format: cell-based; settings: ATCC 700221, 24 h
Procedure: (§1) Fig. 2 Antimicrobial activity and secondary structure of computationally designed peptides. a, Structure prediction of the synthesized peptides. b, Heatmap of the antimicrobial activities of the peptides against 11 clinically relevant pathogens, including four strains resistant to conventional antibiotics. Briefly, 10^6 bacterial cells and serially diluted peptides (1-64 μmol l^−1) were incubated at 37 °C. One day after treatment, the optical density at 600 nm was measured in a microplate reader to evaluate bacterial growth in the presence of the peptides. MIC values in the heatmap are the mode of the replicates in each condition. c–f, Ternary plots showing the percentage of secondary structure for each peptide (at 50 μmol l^−1) in four different solvents: water (c), 60% TFE in water (d), 10 mmol l^−1 SDS in water (e) and 50% methanol (MeOH) in water (f). Secondary structure fractions were calculated using the BeStSel server. […] An error of one column cannot be fully excluded. / Panel b: AT1, AT2, AT3 and all blank cells print no number and are left out.
(§2) Broth microdilution assays[64] were conducted to establish the MIC for each peptide. Peptides were added to untreated polystyrene 96-well microtiter plates and serially diluted twofold in sterile water, ranging from 1 to 64 μmol l^−1. A bacterial inoculum at a concentration of 10^6 CFU ml^−1 in LB medium was then mixed in a 1:1 ratio with the peptide solution. […] Each assay was performed in three independent replicates.

[2] = tested on: S. aureus ATCC BAA-1556 - MRSA; format: cell-based; settings: ATCC BAA-1556, 24 h
Procedure: as §1, §2

[3] = tested on: HEK293T cells; assay: Cytotoxicity, MTT assay; format: cell-based, human; settings: 24 h
Procedure: Fig. 3 Mechanism of action and cytotoxic activity of designed peptides. a, To assess whether the peptides act on bacterial membranes, all active peptides against A. baumannii American Type Culture Collection (ATCC) 19606 were subjected to outer-membrane permeabilization, and peptides active against A. baumannii ATCC 19606 and vancomycin-resistant E. faecalis ATCC 700802 were tested in cytoplasmic-membrane depolarization assays. b, The fluorescent probe NPN was used to assess membrane permeabilization induced by the tested peptides. c,d, The fluorescent probe DiSC3-5 was used to evaluate membrane depolarization caused by the designed peptides in A. baumannii ATCC 19606 (c) and vancomycin-resistant E. faecalis ATCC 700802 (d). […] All experiments were performed in three independent replicates. Panel a created with BioRender.com. Source data TEXT PRINTED IN THE PICTURE: (e) AT1: CC50 (μmol l^-1), HEK293T cells: 2,758 | (e) AT2: CC50 (μmol l^-1), HEK293T cells: 2 × 10^37 | (e) AT3: CC50 (μmol l^-1), HEK293T cells: 269 | (e) AT4: CC50 (μmol l^-1), HEK293T cells: 3,015 | (e) AT5: CC50 (μmol l^-1), HEK293T cells: 6 × 10^41 | (e) NE1: CC50 (μmol l^-1), HEK293T cells: 6 × 10^33 | (e) NE2: CC50 (μmol l^-1), HEK293T cells: 507 | (e) NE3: CC50 (μmol l^-1), HEK293T cells: 655 | (e) NE4: CC50 (μmol l^-1), HEK293T cells: 2 × 10^32 | (e) NG1: CC50 (μmol l^-1), HEK293T cells: 351 | (e) NG2: CC50 (μmol l^-1), HEK293T cells: 1 × 10^35 | (e) NG3: CC50 (μmol l^-1), HEK293T cells: 2 × 10^46 DOUBTS OF THE COPYIST ABOUT THIS PICTURE: AT2, CC50: small exponent, 37 or 57 / AT5, CC50: small exponent, 41 uncertain / NE1, CC50: small exponent, 33 or 38 / NE4, CC50: small exponent, 32 or 52 / NG2, CC50: small exponent, 35 or 36 / NG3, CC50: small exponent, 46 or 48 […]
HEK293T cells were obtained from the ATCC (CRL-3216). The cells were cultured in high-glucose DMEM supplemented with 1% penicillin and streptomycin (antibiotics) and 10% fetal bovine serum and grown at 37 °C in a humidified atmosphere containing 5% CO2.
One day before the experiment, an aliquot of 100 μl of the cells at 50,000 cells ml^−1 was seeded into each well of the cell-treated 96-well plates used in the experiment (that is, 5,000 cells per well)[45]. The attached HEK293T cells were then exposed to increasing concentrations of the peptides (4–64 μmol l^−1) for 24 h. After the incubation period, we performed the (3-(4,5-dimethylthiazol-2-yl)-2,5-diphenyltetrazolium bromide) tetrazolium reduction assay (MTT assay)[45]. […] The resulting salts were then resuspended in hydrochloric acid (0.04 mol l^−1) in anhydrous isopropanol and quantified by spectrophotometric measurements of absorbance at 570 nm. […]

[4] = tested on: K. pneumoniae ATCC 13883; format: cell-based, Klebsiella pneumoniae; settings: ATCC 13883, 24 h
Procedure: as §1
(§3) In this study, we used the following pathogenic bacterial strains: A. baumannii ATCC 19606, E. coli AIC221 (E. coli MG1655 phnE_2::FRT (control strain for AIC222)) and E. coli AIC222 (E. coli MG1655 pmrA53 phnE_2::FRT (polymyxin resistant; colistin-resistant strain)), Klebsiella pneumoniae ATCC 13883, Pseudomonas aeruginosa PAO1, P. aeruginosa PA14 and Staphylococcus aureus ATCC 12600. All pathogens were grown in Luria–Bertani (LB) broth and on LB agar. Pseudomonas isolation (P. aeruginosa strains) agar plates were exclusively used in the case of Pseudomonas species. In all the experiments, bacteria were inoculated from one isolated colony and grown overnight (16 h) in liquid medium at 37 °C. On the following day, inocula were diluted 1:100 in fresh media and incubated at 37 °C to mid-logarithmic phase.
as §2

[5] = tested on: A. baumannii ATCC 19606; format: cell-based, Acinetobacter baumannii; settings: ATCC 19606, 24 h
Procedure: as §1, §3, §2

[6] = tested on: S. aureus ATCC 12600; format: cell-based, Staphylococcus aureus; settings: ATCC 12600, 24 h
Procedure: as §1, with “out. […]” for “out.”

For FRLAAVLHFHIH [AT4], the MIC [1] was 32 µmol/L, the MIC [2] was 16 µmol/L and the “CC50, cytotoxic concentration leading to 50% cell lysis” value [3] was 3.015 mM. It also gave an MIC [4] of 8 µmol/L, an MIC [5] of 32 µmol/L and an MIC [6] of 64 µmol/L.
